Measurements: patent publication US10517854B2, “Dosing regiments of celgosivir for the treatment of dengue” (60 Degrees Pharmaceuticals, LLC, priority 2013, dated 2019)
Several values for one entry are separate records, joined by “and”; a condition that tells them apart may be missing. Identical values can stand only once. Entries after “also recorded” stand apart in the source; their conditions may differ. Like-named read-outs stand apart in the source and are kept apart here.

Experiments:
DENV2 (TSV01 strain) = assay: Cell-based flaviviral immunodetection assay (CFI), DENV2; details: Dengue virus, DENV2, BHK-21, 48 h, DENV2, BHK21 cells
Experimental: BHK21 cells were seeded at 1.3×104 in 96-well plate and incubated overnight at 37° C. in 5% CO2 incubator. Confluent monolayer of BHK21 cells were infected with DENV2 (TSV01 strain) at an MOI (multiplicity of infection) 0.3 in the presence of various concentrations of test compounds and incubated for 1 hour at 37° C. in 5% CO2 incubator. Infected cells were incubated with test compounds for another 48 hours at 37° C. in 5A CO2. Cells were fixed with methanol and mouse monoclonal antibody 4G2 was used to detect DENV E protein, which was quantified using a secondary anti-mouse antibody conjugated with horseradish peroxidase (HRP). Absorbance was read at 450 nm and dose-response curve was plotted accordingly. The 50% effective concentration (EC50), that is, the concentration of the test compound that decreased the level of viral E protein production by 50%, was calculated by nonlinear regression analysis.

DENV3 = assay: Cell-based flaviviral immunodetection assay (CFI), DENV3; details: Dengue virus, BHK-21; DENV3, BHK21 cells, 48 hours
DENV1-4 = assay: Inhibition of replication across dengue serotypes (CFI); type: cell-based; details: Dengue virus, DENV1 / DENV2, read-out: EC50 values for the other three serotypes
DENV2 infected BHK21 = assay: Fluorescence microscopy for NS1 in infected BHK21 cells; type: cell-based, dengue virus; details: 20 μM, 24 hr
Experimental: BHK21 cells were infected with DENV2 and treated with 20 μM celgosivir or saline. After 24 hr incubation, cells were stained with nuclear stain diamidino-2-phenylindole (DAPI) or with a MAb against NS1 in conjunction with a secondary antibody conjugated with Alexa-488 (green), then examined by fluorescent microscopy for the presence of NS1, a marker for viral replication.

EDEM, XBP1, CHOP = assay: Host gene products during drug-induced unfolded protein response; type: cell-based; details: data not shown
From the text: The pro-survival products enhance the clearance of misfolded proteins by directing them to the proteosome for degradation.

[1] = tested on: DENV2 strain NGC subgenomic replicon; assay: Replicon assay (luciferase, A549 replicon cell line); type: cell-based; details: Dengue virus, A549 replicon cells, 48 hour
Experimental: The DENV subgenomic replicon was derived from the DENV2 strain NGC and consists of a luciferase reporter and a puromycin resistance gene for stable transfection. (7) Only the nonstructural proteins NS1, NS2A, NS2B, NS3, NS4A, NS4B, and NS5 were represented in the replicon construct. Of the nonstructural proteins, only NS1 is known to be glycosylated.
The stably transfected A549 replicon cell line was plated into a 96-well plate in the presence of various concentrations of test compounds and incubated for 48 hour at 37° C. in 5% CO2 incubator. The luciferase activity of the replicon treated with various concentrations of the test compound was measured using EnduRen (Promega) at a 1:1000 dilution followed by incubation for 2 hrs before the luminescence was read using a Tecan plate-reader. The data was plotted against the log transformation of the concentration of the compounds to obtain a dose-response curve to calculate the EC50 value.

DENV2 [2] = assay: Lethal ADE mouse model of viremia; type: in vivo
Experimental: To model ADE, mice were injected IP (intraperitoneal) with […] of mouse monoclonal antibody against the (DENV) E protein (4G2 clone) one day prior to infection. (9) For treatment, celgosivir was injected IP once or twice daily for a total of 5 days. Mice were monitored every day till Day 12 post infection. The data were plotted as Kaplan-Meier curves using Prism 5.0 software.
To evaluate the effect of dose and dose schedule, four drug regimens were studied in the ADE viremia model: 10, 25 and 50 mg/kg BID and 100 mg/kg QD (once daily). For the BID schedule, survival increased with increasing dose with survival rates of 13%, 63% and 100% for 10, 25, and 50 mg/kg BID.
Even when treatment was delayed (FIG. 5A), celgosivir (50 mg/kg BID) exerted a protective effect. In this experiment, survival at Day 12 was 100%, 75%, and 50% when treatment was immediate, delayed 24 hr or delayed 48 hr after DENV2 infection, respectively, in the ADE model; by contrast, none (0%) of the sham-treated mice survived past day 5 (FIG. 5B). Viremia, as determined by plaque assay, in celgosivir-treated mice (50 mg/kg BID) was 8.3% of levels in sham-treated mice after only 1 day of dosing. By study day 3, viremia had increased in untreated mice by more than 7-fold.

[3] = Pharmacokinetics mouse studies; details: in vivo
Experimental: The concentration profile of celgosivir and castanospermine in the mouse after a single IP dose of celgosivir at a dose of 50 mg/kg is illustrated in FIG. 6A. Serum concentrations were measured using a validated LC/MS/MS assay performed. Celgosivir was measurable in serum only up to 1 hr post-dosing.
The castanospermine concentration profile after dosing at 50 mg/kg BID for 5 days was calculated by nonparametric superposition (FIG. 6B). This dosing regimen of celgosivir protected 100% of mice in the lethal ADE dengue infection model.

DENV2 [4] = details: cited from earlier work
[5] = cited from earlier work
[6] = tested on: gastrointestinal α-amylase, sucrase, maltase; details: cited from earlier work
[7] = humans, cited from earlier work

SMILES: CCCC(=O)O[C@H]1CN2CC[C@H](O)[C@@H]2[C@@H](O)[C@@H]1O.Cl [Celgosivir, celgosivir]
- EC50 (DENV2 (TSV01 strain)): 0.22 µM
- EC50 (DENV3): 0.68 ± 0.02 µM
- EC50 (DENV1-4): 0.31 to 0.65 µM
- NS1 / viral replication by immunofluorescence (DENV2 infected BHK21): almost complete suppression of viral replication; also recorded: very low levels of NS1
- apoptotic markers such as CHOP (EDEM, XBP1, CHOP): down-regulated
- pro-survival host gene products such as EDEM and XBP1 (EDEM, XBP1, CHOP): upregulation
- EC50 [1]: 2.2 µM
- survival at Day 12 (DENV2 [2]; 10 mg/kg BID for 5 days): 12% and 13%
- survival at Day 12 (DENV2 [2]; 25 mg/kg BID for 5 days): 62% and 63%
- survival at Day 12 (DENV2 [2]; 50 mg/kg BID for 5 days, immediate treatment): 100%
- viremia, of levels in sham-treated mice (DENV2 [2]; 50 mg/kg BID, after 1 day of dosing, plaque assay): 8.3%
- viremia, of levels in sham-treated mice (DENV2 [2]; 50 mg/kg BID, study day 3, delayed 24 hr): 26%
- viremia, of levels in sham-treated mice (DENV2 [2]; 50 mg/kg BID, study day 3, delayed 48 hr): 69%
- viremia, of levels in sham-treated mice (DENV2 [2]; 50 mg/kg BID, study day 3, immediate treatment): 17%
- survival at Day 12 (DENV2 [2]; 50 mg/kg BID, treatment delayed 24 hr): 75%
- survival at Day 12 (DENV2 [2]; 50 mg/kg BID, treatment delayed 48 hr): 50%
- survival (in words) (DENV2 [2]; 100 mg/kg once daily (QD)): no mice survived past day 6; also recorded: none surviving past Day 6
- survival at Day 12 (DENV2 [2]; 100 mg/kg once daily (QD)): 0%
- absorption compared with castanospermine [3]: more rapidly and efficiently absorbed than castanospermine
- species detected in plasma after celgosivir [3]: only castanospermine was detected in the plasma
- time celgosivir measurable in serum post-dosing ([3]; ip, 50 mg/kg): up to 1 hr
- reduction of viremia (DENV2 [4]; given at the time of infection): 88%
- reduction of viremia (DENV2 [4]; treatment delayed by 24 hours): 55%
- Cmax and AUC versus dose ([5]; humans): increase in proportion to dose
- oral clearance ([5]; humans): 12 L/h
- terminal half-life ([5]; humans): 18 h
- conversion in humans ([5]; only castanospermine detected in plasma): rapidly convert to castanospermine
- inhibition of gastrointestinal enzymes, comparison [6]: weaker inhibitor than castanospermine
- maximum tolerated dose (MTD) ([7]; HIV drug trials, for 184 days): 400 mg per day
- adverse events [7]: largely gastrointestinal, namely flatulence and diarrhea, of mild to moderate intensity
- serious adverse events [7]: No serious adverse events have been reported
- serum creatine kinase [7]: Asymptomatic elevations
- time to reversal of creatine kinase elevations after discontinuation [7]: ≤ 2 weeks
